Earlier results as cited in patent publication US6696082B2, “Enhanced liposomal thioretinaco ozonide compositions and liposomal carrier” (priority 2002, dated 2004).

Experiments:
malignant tumors = conditions: in vivo; cited from earlier work
[1] = system: cultured malignant and normal cells; conditions: except at high concentrations; cited from earlier work
[2] = rats treated with parenteral homocysteine thiolactone; cited from earlier work
[3] = system: human pancreatic adenocarcinomas; conditions: intra-tumor administration, athymic mice; cited from earlier work

Molecule	growth of malignant tumors in animals (malignant tumors)	growth of cultured cells [1]	antiatherogenic activity [2]	growth of human pancreatic adenocarcinomas [3]
NC(=O)/C=C\C(=O)NC1CCSC1=O (centres unmarked) [N-maleamide homocysteine thiolactone amide]	suppress the growth of malignant tumors in animals			
CC1=C(/C=C/C(C)=C/C=C/C(C)=C/C(=O)NC2CCSC2=O)C(C)(C)CCC1 (centres unmarked) [thioretinamide, N-homocysteine thiolactonyl retinamide]		decrease growth without degeneration or detachment of the cells	have antiatherogenic activity	
N-homocysteine thiolactonyl retinamido cobalamin [(NHTR)2Cbl]		decrease growth without degeneration or detachment of the cells	have antiatherogenic activity	decreased the growth
N-maleyl homocysteine thiolactone amide	suppress the growth of malignant tumors in animals			
rhodium trichloride oxalyl homocysteine thiolactone amide	suppress the growth of malignant tumors in animals			
